From patent publication US20250059131A1, “FLUORINATED CATIONIC LIPIDS FOR USE IN LIPID NANOPARTICLES” (Acuitas Therapeutics, Inc., priority 2021, published 2025)
Marks after values point to notes of the source that are not given here.

Tests used:
human IgG in mouse serum = experiment: Immunoglobulin G (IgG) mRNA in vivo evaluation using lipid nanoparticle compositions; set-up: species or system mice; details: tail vein injection, 24 hours after administration, LNP formulation; for Serum IgG @ 0.3 mg/kg: 0.3 mg mRNA/kg; for Serum IgG @ 1.0 mg/kg: 1.0 mg mRNA/kg
Protocol: A lipid of structure (I), DSPC, cholesterol and PEG-lipid are solubilized in ethanol at a molar ratio of 50:10:38.5:1.5 or 47.5:10:40.7:1.8. Lipid nanoparticles (LNP) are prepared at a total lipid to mRNA weight ratio of approximately 10:1 to 40:1. Briefly, the mRNA is diluted to 0.2 mg/mL in 10 to 50 mM citrate buffer, pH 4 or 10 to 25 mM acetate buffer, pH 4. Syringe pumps are used to mix the ethanolic lipid solution with the mRNA aqueous solution at a ratio of about 1:5 to 1:3 (vol/vol) with total flow rates above 15 mL/min. The ethanol is then removed and the external buffer replaced with PBS by dialysis. Finally, the lipid nanoparticles are filtered through a 0.2 µm pore sterile filter.
Studies are performed in 6-8 week old CD-1/ICR mice (Envigo) according to guidelines established by an institutional animal care committee (ACC) and the Canadian Council on Animal Care (CCAC). Varying doses of mRNA-lipid nanoparticle are systemically administered by tail vein injection and animals euthanized at a specific time point (e.g., 24 hours) post-administration. The whole blood is collected, and the serum subsequentially separated by centrifuging the tubes of the whole blood at 2000× g for 10 minutes at 4° C. and stored at −80° C. until use for analysis.
For immunoglobulin G (IgG) ELISA (Life Diagnostics Human IgG ELISA kit), the serum samples are diluted at 100 to 15000 folds with 1× diluent solution. 100 μL of diluted serum is dispensed into anti-human IgG coated 96-well plate in duplicate alongside human IgG standards and incubated in a plate shaker at 150 rpm at 25° C. for 45 minutes. The wells are washed 5 times with 1× wash solution using a plate washer (400 μL/well). […] The absorbance is read at 450 nm (A450) with a microplate reader. The amount of human IgG in mouse serum is determined by plotting A450 values for the assay standard against human IgG concentration.
(§1) Representative compounds of the disclosure shown in Table 2 were formulated using the following molar ratio: 50% cationic lipid/10% distearoylphosphatidylcholine (DSPC)/38.5% Cholesterol/1.5% PEG lipid 2-[2-(ω-methoxy(polyethyleneglycol2000)ethoxy]-N,N-ditetradecylacetamide) or 47.5% cationic lipid/10% DSPC/40.7% Cholesterol/1.8% PEG lipid. Relative activity was determined by measuring luciferase expression in the liver 4 hours following administration via tail vein injection as described in Example 1 or by measuring the amount of human IgG in mouse serum as described in example 2. The activity was compared at a dose of 1.0 or 0.5 or 0.3 mg mRNA/kg and expressed as ng luciferase/g liver measured 4 hours after administration, as described in Example 1 or as μg IgG/mL serum measured 24 hours after administration, as described in Example 2. […]

[1] = Determination of pKa of formulated lipids (TNS fluorescence assay in lipid nanoparticles); format: physicochemical; details: cationic lipid formulated in LNP (cationic lipid/DSPC/cholesterol/PEG-lipid 47.5/10/40.7/1.8 mol %), pH of half-maximal fluorescence
Protocol: As described elsewhere, the pKa of formulated cationic lipids is correlated with the effectiveness of LNPs for delivery of nucleic acids (see Jayaraman et al, Angewandte Chemie, International Edition (2012), 51(34), 8529-8533; Semple et al, Nature Biotechnology 28, 172-176 (2010)). The preferred range of pKa is ˜5 to ˜7. The pKa of each cationic lipid was determined in lipid nanoparticles using an assay based on fluorescence of 2-(p-toluidino)-6-napthalene sulfonic acid (TNS). Lipid nanoparticles comprising cationic lipid/DSPC/cholesterol/PEG-lipid (47.5/10/40.7/1.8 mol %) in PBS at a concentration of 0.4 mM total lipid were prepared using the in-line process as described in Example 1. TNS was prepared as a […] stock solution in distilled water. Vesicles were diluted to 24 μM lipid in 2 mL of buffered solutions containing, 10 mM HEPES, 10 mM MES, 10 mM ammonium acetate, 130 mM NaCl, where the pH ranged from 2.5 to 11. An aliquot of the TNS solution was added to give a final concentration of 1 μM and following vortex mixing fluorescence intensity was measured at room temperature in a SLM Aminco Series 2 Luminescence Spectrophotometer using excitation and emission wavelengths of 321 nm and 445 nm. A sigmoidal best fit analysis was applied to the fluorescence data and the pKa was measured as the pH giving rise to half-maximal fluorescence intensity.

[2] = test system: luciferase expression in the liver; experiment: Luciferase mRNA in vivo evaluation using lipid nanoparticle compositions; set-up: species or system mice; details: tail vein injection, 4 hours after administration, LNP formulation; for Liver Luc @ 0.5 mg/kg (ng luc/g): 0.5 mg mRNA/kg
Protocol: Lipid nanoparticles were prepared and tested according to the general procedures described in PCT Pub. Nos. WO 2015/199952 and WO 2017/004143, the full disclosures of which are incorporated herein by reference. Briefly, cationic lipid, DSPC, cholesterol and PEG-lipid were solubilized in ethanol at a molar ratio of about 50:10:38.5:1.5 or about 47.5:10:40.7:1.8. Lipid nanoparticles (LNP) were prepared at a total lipid to mRNA weight ratio of approximately 10:1 to 40:1. The mRNA is diluted to 0.2 mg/mL in 10 to 50 mM citrate or acetate buffer, pH 4. Syringe pumps were used to mix the ethanolic lipid solution with the mRNA aqueous solution at a ratio of about 1:5 to 1:3 (vol/vol) with total flow rates above 15 mL/min. The ethanol was then removed and the external buffer replaced with PBS by dialysis. Finally, the lipid nanoparticles were filtered through a 0.2 µm pore sterile filter. Lipid nanoparticle particle size was approximately 55-95 nm diameter, and in some instances approximately 70-90 nm diameter as determined by quasi-elastic light scattering using a Malvern Zetasizer Nano ZS (Malvern, UK).
Studies were performed in 6-8 week old female C57BL/6 mice (Charles River) or 8-10 week old CD-1 (Harlan) mice (Charles River) according to guidelines established by an institutional animal care committee (ACC) and the Canadian Council on Animal Care (CCAC). Varying doses of mRNA-lipid nanoparticle were systemically administered by tail vein injection and animals euthanized at a specific time point (e.g., 4 hours) post-administration. Liver and spleen were collected in pre-weighed tubes, weights determined, immediately snap frozen in liquid nitrogen and stored at −80° C. until processing for analysis.
For liver, approximately 50 mg was dissected for analyses in a 2 mL FastPrep tubes (MP Biomedicals, Solon OH). […] ceramic sphere (MP Biomedicals) is added to each tube and 500 μL of Glo Lysis Buffer—GLB (Promega, Madison WI) equilibrated to room temperature is added to liver tissue. Liver tissues were homogenized with the FastPrep24 instrument (MP Biomedicals) at 2×6.0 m/s for 15 seconds. Homogenate was incubated at room temperature for 5 minutes prior to a 1:4 dilution in GLB and assessed using SteadyGlo Luciferase assay system (Promega). Specifically, 50 μL of diluted tissue homogenate was reacted with 50 μL of SteadyGlo substrate, shaken for 10 seconds followed by 5 minute incubation and then quantitated using a CentroXS^3 LB 960 luminometer (Berthold Technologies, Germany). The amount of protein assayed was determined by using the BCA protein assay kit (Pierce, Rockford IL). Relative luminescence units (RLU) were then normalized to total μg protein assayed. To convert RLU to ng luciferase a standard curve was generated with QuantiLum Recombinant Luciferase (Promega).
The FLuc mRNA (L-6107 or L-7202) from Trilink Biotechnologies will express a luciferase protein, originally isolated from the firefly, photinus pyralis. FLuc is commonly used in mammalian cell culture to measure both gene expression and cell viability. It emits bioluminescence in the presence of the substrate, luciferin. This capped and poly-adenylated mRNA was fully substituted with respect to uridine and/or cytidine nucleosides.
as §1, with “2.” for “2. The activity was compared at a dose of 1.0 or 0.5 or 0.3 mg mRNA/kg and expressed as ng luciferase/g liver measured 4 hours after administration, as described in Example 1 or as μg IgG/mL serum measured 24 hours after administration, as described in Example 2.”

Row | pKa [1] | SMILES | Serum IgG @ 0.3 mg/kg (human IgG in mouse serum) [µg/mL] | Serum IgG @ 1.0 mg/kg (human IgG in mouse serum) [µg/mL] | Liver Luc @ 0.5 mg/kg (ng luc/g) [2] [ng luc/g] | Liver Luc, determined at 0.3 mg/kg (ng luc/g) ([2]; 0.3 mg mRNA/kg) | Liver Luc, determined at 1.0 mg/kg (ng luc/g) ([2]; 1.0 mg mRNA/kg)
1 | – | CCCCCCCCCCN(CCCCCCCCCC)C(=O)C(F)CCCCCCN(C)CCCCCCC(F)C(=O)N(CCCCCCCCCC)CCCCCCCCCC (stereo not drawn) [Compound I-10, 8,8′-(METHYLAZANEDIYL)BIS(N,N-DIDECYL-2-FLUOROOCTANAMIDE)] | 12.94 ± 2.03 | 142.26 ± 26.31 | – | – | –
2 | 5.88 | CCCCCCCCCC(OC(=O)CCCCCCCN(CCO)CCCCCCCC(=O)OC(CCCCCCCCC)C(F)(F)C(F)(F)F)C(F)(F)C(F)(F)F (stereo not drawn) [Compound I-1, BIS(1,1,1,2,2-PENTAFLUORODODECAN-3-YL) 8,8′-((2-HYDROXYETHYL)AZANEDIYL)DIOCTANOATE] | – | – | 1233 ± 305 | – | –
3 | 5.92 | CCCCCCCCCC(OC(=O)CCCCCN(CCCO)CCCCCC(=O)OC(CCCCCCCCC)C(F)(F)C(F)(F)F)C(F)(F)C(F)(F)F (stereo not drawn) [Compound I-2, BIS(1,1,1,2,2-PENTAFLUORODODECAN-3-YL) 6,6′-((3-HYDROXYPROPYL)AZANEDIYL)DIHEXANOATE] | – | – | 511 ± 79 | – | –
4 | 6.62 | CCCCCCCCCC(CC)OC(=O)CCCCCN(CCCCO)CCCCCC(=O)OC(CC)CCCCCCCCC (stereo not drawn) [I-3 analogue, reference compound] | – | – | 462 ± 425 | – | –
5 | 6.03 | CCCCCCCCCC(OC(=O)CCCCCN(CCCCO)CCCCCC(=O)OC(CCCCCCCCC)C(F)(F)C(F)(F)F)C(F)(F)C(F)(F)F (stereo not drawn) [Compound I-3, BIS(1,1,1,2,2-PENTAFLUORODODECAN-3-YL) 6,6′-((4-HYDROXYBUTYL)AZANEDIYL)DIHEXANOATE] | – | – | 3633 ± 1416 | – | –
6 | – | CCCCCCCCCCN(CCCCCCCCCC)C(=O)C(F)CCCCCCN(CCCCCO)CCCCCCC(F)C(=O)N(CCCCCCCCCC)CCCCCCCCCC (stereo not drawn) [Compound I-9, 8,8′-((5-HYDROXYPENTYL)AZANEDIYL)BIS(N,N-DIDECYL-2-FLUOROOCTANAMIDE)] | 24.36 ± 4.39 | 239.26 ± 39.80 | – | – | –
7 | 5.88 | CCCCCCCCCC(OC(=O)CCCCCN(CCCCCO)CCCCCC(=O)OC(CCCCCCCCC)C(F)(F)C(F)(F)F)C(F)(F)C(F)(F)F (stereo not drawn) [Compound I-4, BIS(1,1,1,2,2-PENTAFLUORODODECAN-3-YL) 6,6′-((5-HYDROXYPENTYL)AZANEDIYL)DIHEXANOATE] | – | – | – | 1336 ± 329 | 14888 + 2009** ng luc/g
